Reference: PubChem BioAssay AID1963871 (Molecular Pharmacology Branch, DTP, NCI, 2024)
pIC50: −log10 of the molar value.

Test system: KRAS-mutant PDC multicell tumor spheroid viability
Assay: Anticancer human tumor 521955-158-R2-J5-PDC patient-derived pancreatic carcinoma cell line growth inhibition [KRAS2]
Settings: for pIC50: curve of first compound; for viability, T/C: stronger effect = lower value
Method in brief: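 KRAS-mutant tumor cells were grown as spheroids with HUVEC endothelial cells and human MSCs as stroma. Targeted agents were tested alone and with KRAS pathway inhibitors. Doses started at or near clinical Cmax, or 10 microM, descending half-log.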

[1] = second compound 0.1 µM, first compound 0.000316 µM
[2] = second compound 0.1 µM, first compound 0.001 µM
[3] = second compound 0.1 µM, first compound 0.00316 µM
[4] = second compound 0.1 µM, first compound 0.01 µM
[5] = second compound 0.1 µM, first compound 0.0316 µM
[6] = second compound 0.1 µM, first compound 0.1 µM
[7] = second compound 0.316 µM, first compound 0.000316 µM
[8] = second compound 0.316 µM, first compound 0.001 µM
[9] = second compound 0.316 µM, first compound 0.00316 µM
[10] = second compound 0.316 µM, first compound 0.01 µM
[11] = second compound 0.316 µM, first compound 0.0316 µM
[12] = second compound 0.316 µM, first compound 0.1 µM
[13] = second compound 1 µM, first compound 0.000316 µM
[14] = second compound 1 µM, first compound 0.001 µM
[15] = second compound 1 µM, first compound 0.00316 µM
[16] = second compound 1 µM, first compound 0.01 µM
[17] = second compound 1 µM, first compound 0.0316 µM
[18] = second compound 1 µM, first compound 0.1 µM
[19] = second compound 3.16 µM, first compound 0.000316 µM
[20] = second compound 3.16 µM, first compound 0.001 µM
[21] = second compound 3.16 µM, first compound 0.00316 µM
[22] = second compound 3.16 µM, first compound 0.01 µM
[23] = second compound 3.16 µM, first compound 0.0316 µM
[24] = second compound 3.16 µM, first compound 0.1 µM
[25] = second compound 10 µM, first compound 0.000316 µM
[26] = second compound 10 µM, first compound 0.001 µM
[27] = second compound 10 µM, first compound 0.00316 µM
[28] = second compound 10 µM, first compound 0.01 µM
[29] = second compound 10 µM, first compound 0.1 µM
[30] = second compound 0.1 µM, first compound 0.316 µM
[31] = second compound 0.1 µM, first compound 1 µM
[32] = second compound 0.1 µM, first compound 3.16 µM
[33] = second compound 0.1 µM, first compound 10 µM
[34] = second compound 0.316 µM, first compound 0.316 µM
[35] = second compound 0.316 µM, first compound 1 µM
[36] = second compound 0.316 µM, first compound 3.16 µM
[37] = second compound 0.316 µM, first compound 10 µM
[38] = second compound 1 µM, first compound 0.316 µM
[39] = second compound 1 µM, first compound 1 µM
[40] = second compound 1 µM, first compound 3.16 µM
[41] = second compound 1 µM, first compound 10 µM
[42] = second compound 3.16 µM, first compound 0.316 µM
[43] = second compound 3.16 µM, first compound 1 µM
[44] = second compound 3.16 µM, first compound 3.16 µM
[45] = second compound 3.16 µM, first compound 10 µM
[46] = second compound 10 µM, first compound 0.0316 µM
[47] = second compound 10 µM, first compound 0.316 µM
[48] = second compound 10 µM, first compound 1 µM
[49] = second compound 10 µM, first compound 3.16 µM
[50] = second compound 10 µM, first compound 10 µM
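Further: viability read after seven days of drug exposure.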

CC(C)n1nc(-c2ccc3oc(N)nc3c2)c2c(N)ncnc21 + C=CC(=O)N1CCN(c2nc(=O)n(-c3c(C)ccnc3C(C)C)c3nc(-c4c(O)cccc4F)c(F)cc23)C(C)C1
pIC50 (second compound 0.1 µM): 8.02 | pIC50 (second compound 0.316 µM): 8.12 | pIC50 (second compound 1 µM): 8.14 | pIC50 (second compound 3.16 µM): 8.46 | pIC50 (second compound 10 µM): 9.15 | viability, T/C [1]: 110% | viability, T/C [2]: 97.8% | viability, T/C [3]: 63.6% | viability, T/C [4]: 52.8% | viability, T/C [5]: 36.7% | viability, T/C [6]: 27.2% | viability, T/C [7]: 117% | viability, T/C [8]: 98.1% | viability, T/C [9]: 65.5% | viability, T/C [10]: 44.6% | viability, T/C [11]: 35.5% | viability, T/C [12]: 26.9% | viability, T/C [13]: 117% | viability, T/C [14]: 102% | viability, T/C [15]: 64.3% | viability, T/C [16]: 43.8% | viability, T/C [17]: 36.6% | viability, T/C [18]: 24% | viability, T/C [19]: 91.7% | viability, T/C [20]: 79.7% | viability, T/C [21]: 51.9% | viability, T/C [22]: 29.7% | viability, T/C [23]: 26.9% | viability, T/C [24]: 23.1% | viability, T/C [25]: 58.1% | viability, T/C [26]: 46.9% | viability, T/C [27]: 32.5% | viability, T/C [28]: 25.7% | viability, T/C [29]: 18.8%

CC1(C)CCC(CN2CCN(c3ccc(C(=O)NS(=O)(=O)c4ccc(NCC5CCOCC5)c([N+](=O)[O-])c4)c(Oc4cnc5[nH]ccc5c4)c3)CC2)=C(c2ccc(Cl)cc2)C1 + C=CC(=O)N1CCN(c2nc(=O)n(-c3c(C)ccnc3C(C)C)c3nc(-c4c(O)cccc4F)c(F)cc23)C(C)C1
pIC50 (second compound 0.1 µM): 5.23 | pIC50 (second compound 0.316 µM): 5.30 | pIC50 (second compound 1 µM): 5.43 | pIC50 (second compound 3.16 µM): 5.46 | pIC50 (second compound 10 µM): 5.71 | viability, T/C [5]: 100% | viability, T/C [6]: 116% | viability, T/C [30]: 106% | viability, T/C [31]: 109% | viability, T/C [32]: 92.3% | viability, T/C [33]: 14.3% | viability, T/C [11]: 96% | viability, T/C [12]: 110% | viability, T/C [34]: 106% | viability, T/C [35]: 112% | viability, T/C [36]: 76.1% | viability, T/C [37]: 11.1% | viability, T/C [17]: 114% | viability, T/C [18]: 104% | viability, T/C [38]: 113% | viability, T/C [39]: 111% | viability, T/C [40]: 56% | viability, T/C [41]: 10.2% | viability, T/C [23]: 90.9% | viability, T/C [24]: 102% | viability, T/C [42]: 92.4% | viability, T/C [43]: 86.9% | viability, T/C [44]: 52.3% | viability, T/C [45]: 22.5% | viability, T/C [46]: 75.9% | viability, T/C [29]: 68.8% | viability, T/C [47]: 72.9% | viability, T/C [48]: 61.9% | viability, T/C [49]: 40.9% | viability, T/C [50]: 13.3%

COc1cc2nccc(Oc3ccc(NC(=O)C4(C(=O)Nc5ccc(F)cc5)CC4)cc3)c2cc1OC + C=CC(=O)N1CCN(c2nc(=O)n(-c3c(C)ccnc3C(C)C)c3nc(-c4c(O)cccc4F)c(F)cc23)C(C)C1
pIC50 (second compound 0.1 µM): 5.18 | pIC50 (second compound 0.316 µM): 5.24 | pIC50 (second compound 1 µM): 5.40 | pIC50 (second compound 3.16 µM): 5.60 | pIC50 (second compound 10 µM): 5.91 | viability, T/C [5]: 114% | viability, T/C [6]: 122% | viability, T/C [30]: 113% | viability, T/C [31]: 124% | viability, T/C [32]: 78.4% | viability, T/C [33]: 33.5% | viability, T/C [11]: 107% | viability, T/C [12]: 111% | viability, T/C [34]: 117% | viability, T/C [35]: 108% | viability, T/C [36]: 66.8% | viability, T/C [37]: 34.7% | viability, T/C [17]: 109% | viability, T/C [18]: 119% | viability, T/C [38]: 114% | viability, T/C [39]: 112% | viability, T/C [40]: 54.2% | viability, T/C [41]: 32.9% | viability, T/C [23]: 83.7% | viability, T/C [24]: 109% | viability, T/C [42]: 94.4% | viability, T/C [43]: 75.4% | viability, T/C [44]: 44.2% | viability, T/C [45]: 20.9% | viability, T/C [46]: 55.2% | viability, T/C [29]: 64.1% | viability, T/C [47]: 58.7% | viability, T/C [48]: 53.9% | viability, T/C [49]: 32.6% | viability, T/C [50]: 10.4%

Cn1ncnc1[C@H]1c2n[nH]c(=O)c3cc(F)cc(c23)N[C@@H]1c1ccc(F)cc1 + C=CC(=O)N1CCN(c2nc(=O)n(-c3c(C)ccnc3C(C)C)c3nc(-c4c(O)cccc4F)c(F)cc23)C(C)C1
pIC50 (second compound 0.1 µM): < 7.00 | pIC50 (second compound 0.316 µM): < 7.00 | pIC50 (second compound 1 µM): < 7.00 | pIC50 (second compound 3.16 µM): < 7.00 | pIC50 (second compound 10 µM): < 7.00 | viability, T/C [1]: 104% | viability, T/C [2]: 106% | viability, T/C [3]: 89.6% | viability, T/C [4]: 96.3% | viability, T/C [5]: 87.2% | viability, T/C [6]: 79.3% | viability, T/C [7]: 109% | viability, T/C [8]: 108% | viability, T/C [9]: 103% | viability, T/C [10]: 80.6% | viability, T/C [11]: 82.6% | viability, T/C [12]: 86.3% | viability, T/C [13]: 103% | viability, T/C [14]: 107% | viability, T/C [15]: 96.6% | viability, T/C [16]: 85.9% | viability, T/C [17]: 83.3% | viability, T/C [18]: 68.2% | viability, T/C [19]: 95.5% | viability, T/C [20]: 89.8% | viability, T/C [21]: 97.7% | viability, T/C [22]: 75.2% | viability, T/C [23]: 66.4% | viability, T/C [24]: 61.9% | viability, T/C [25]: 63.9% | viability, T/C [26]: 67.8% | viability, T/C [27]: 60.9% | viability, T/C [28]: 59.6% | viability, T/C [46]: 59.8% | viability, T/C [29]: 57.7%
